Assay results: patent US7943606B2, “Compositions and methods to control abnormal cell growth” (CanCure Laboratories, LLC, priority 2005, dated 2011)

Key:
MB-231 cells = assay: Viability of MB-231 breast cancer cells (MTT assay); assay type: cell-based, human
Protocol: To quantify cell death, around the time when significant and characteristic morphological changes took place, cells were pulse-labeled for 10 minutes with [^3H]thymidine to measure DNA activity as described elsewhere [Tomono, M. and Kiss, Z. (1995), “Ethanol enhances the stimulatory effects of insulin and insulin-like growth factor-I on DNA synthesis in NIH 3T3 fibroblasts,” Biochem. Biophys. Res. Commun. 208, 63-67]. Also, cells were collected as suspensions using trypsin, an established method in cell biology, followed by re-plating of cells in fresh tissue culture medium. If no viable cells were obtained after one week in culture, it meant that the cells at the time of re-plating were dead. Survival values obtained with untreated cells were considered 100%. For the determination of relative number of viable cells after treatments, in most cases the MTT assay was used. […]
(§1) NIH 3T3, MEL-28, MEL-24, CaOV-3, ZR-75-1, and T47D cells were cultured as described above. […] The inhibitory effects of CC compounds on cell proliferation are expressed as percent decrease compared to untreated cell cultures (the greater the number, the greater the inhibitory effect of the CC compound). […]

A549 cells = assay: Viability of A549 lung carcinoma cells (MTT assay); assay type: cell-based, human
Protocol: To quantify cell death, around the time when significant and characteristic morphological changes took place, cells were pulse-labeled for 10 minutes with [^3H]thymidine to measure DNA activity as described elsewhere [Tomono, M. and Kiss, Z. (1995), “Ethanol enhances the stimulatory effects of insulin and insulin-like growth factor-I on DNA synthesis in NIH 3T3 fibroblasts,” Biochem. Biophys. Res. Commun. 208, 63-67]. Also, cells were collected as suspensions using trypsin, an established method in cell biology, followed by re-plating of cells in fresh tissue culture medium. If no viable cells were obtained after one week in culture, it meant that the cells at the time of re-plating were dead. […]
The NIH 3T3 (normal) mouse fibroblast, A431 human epidermoid adenocarcinoma, and MCF-7 human breast cancer cells were cultured in DMEM medium containing 10% FBS. […] The values, shown in FIGS. 5A-5F and expressed as percent decrease in viability compared to the untreated control cells, are the mean±std. dev. of 8 incubations in one experiment. […]
as §1

PC-3 cells = assay: Proliferation of PC-3 prostate cancer cells; assay type: cell-based; details: Homo sapiens, similar comparative study (100 μM, 72 hours)
[1] = Viability of MRC-5 normal lung fibroblasts (MTT assay); assay type: cell-based; details: human, MRC-5 normal lung fibroblasts; 30,000 cells per well (80-90% confluent), 72 hours, MTT; read-out: IC50 values, Cytotoxic, MRC-5
Protocol: (§2) To quantify cell death, around the time when significant and characteristic morphological changes took place, cells were pulse-labeled for 10 minutes with [^3H]thymidine to measure DNA activity as described elsewhere [Tomono, M. and Kiss, Z. (1995), “Ethanol enhances the stimulatory effects of insulin and insulin-like growth factor-I on DNA synthesis in NIH 3T3 fibroblasts,” Biochem. Biophys. Res. Commun. 208, 63-67]. Also, cells were collected as suspensions using trypsin, an established method in cell biology, followed by re-plating of cells in fresh tissue culture medium. If no viable cells were obtained after one week in culture, it meant that the cells at the time of re-plating were dead. Survival values obtained with untreated cells were considered 100%. For the determination of relative number of viable cells after treatments, in most cases the MTT assay was used. This calorimetric assay is based on the ability of living cells, but not dead cells, to reduce 3-(4,5-dimethyl thiazol-2-yl)-2,5-diphenyltetrazolium bromide [Carmichael, J, De Graff, W. G., Gazdar, A. F., Minna, J. D. and Mitchell, J. B. (1987), “Evaluation of tetrazolium-based semi-automated calorimetric assay: Assessment of chemosensitivity testing,” Cancer Res. 47, 936-942]. For this assay, cells were plated in 96-well plates, and the MTT assay was performed both in untreated and treated cell cultures. The MTT assay also was performed at the start of treatments to allow assessment of proliferation rates in the control and treated cell cultures.
(§3) The MRC-5 cell line is derived from normal lung tissue of a […] fetus. MRC-5 cells were maintained and treated in Eagles Medium with Hanks' BSS containing 10% fetal bovine serum. The T47D cells were maintained and treated in RPMI 1640 medium supplemented with 0.2 IU bovine insulin and 10% fetal bovine serum. The CaOV-3 human ovarian cancer cells were cultured in Dulbecco's modified Eagle's medium containing 10% fetal bovine serum. The cells were seeded in 96-well plates either at 10,000 cells per well or 30,000 cells per well to examine the antiproliferative and cytotoxic effects of various CC compounds, respectively. The cells were incubated for 24 hours, then the medium was changed followed by the treatments of cultures 2 hours after the medium change. At this point, cell cultures seeded at 10,000 cells per well and 30,000 cells per well were 25-35% and 80-90% confluent, respectively. Incubations were continued for 72 hours followed by the MTT assay. The data, shown in TABLE 2, indicate the inhibitory concentrations of CC compounds (IC50) required for 50% decrease in the number of viable cells. These numbers are calculated from the mean of 4 incubations in one experiment (the experiment was repeated once with similar results).

MRC-5 cells = assay: as above; assay type: cell-based; details: Homo sapiens, MRC5; 10,000 cells per well (25-35% confluent), 72 hours, MTT; read-out: IC50 values, Antiproliferative, MRC-5
Protocol: as §2, §3

Row | Compound | sensitivity to the inhibitory actions, MB-231 (MB-231 cells; 50 and 100 μM, 10 days, MTT) | reduction of cell numbers, A-549, CCDTHT versus CCompound1 (A549 cells; 0-200 μM, 72 hours, MTT) | inhibition at 100 µM (PC-3 cells) | IC50 at 72 h [1] | IC50 (MRC-5 cells) | inhibition at 100 µM (MB-231 cells; Homo sapiens, similar comparative study (100 μM, 72 hours), read-out: inhibition of proliferation, MB-231) | inhibition at 100 µM (A549 cells; Homo sapiens, A549, similar comparative study (100 μM, 72 hours), read-out: inhibition of proliferation, A549)
1 | CC[N+](C)(CC)CCOCc1ccc2sc3ccccc3c(=O)c2c1.[I-] [CCDTHT, N,N-diethyl-N-methyl-2-[(9-oxo-9H-thioxanthen-2-yl)methoxy]-ethanaminium iodide] | moderately sensitive | clearly more effective than CCompound1 | 54 to 55% | 119 µM | 90 µM | – | –
2 | CC[N+](C)(C)CCCOCc1ccc2sc3ccccc3c(=O)c2c1 [CCcompound11, N,N-Dimethyl-N-ethyl-3-[(9-oxo-9H-thioxanthen-2-yl)methoxy]-propane-1-aminium iodide] | – | – | 54 to 55% | – | – | 75% | 68%
